This note sets out measurements from ChEMBL document CHEMBL6114984, “Discovery of 2,4-diaminopyrimidine derivatives as potent inhibitors of FAK capable of activating the Hippo pathway for the treatment of esophageal squamous cell carcinoma” (Eur J Med Chem, 2025).

Molecules are shown by their SMILES.

Data set [1] relates to KYSE-150 cell line. Briefly: Antiproliferative activity against human KYSE-150 cell line assessed as inhibition of cell proliferation incubated for 48 hrs by MTT assay. The note with it: KYSE-150, 48 h. Type of data set: functional, cell-based.
The subject of data set [2] is KYSE-30. Put plainly: cells. The following applies: Homo sapiens, KYSE-30, 48 h.
Description: Antiproliferative activity against human KYSE-30 cells assessed as inhibition of cell proliferation incubated for 48 hrs by MTT assay
For data set [3], the system named is NCI-N87. Briefly: cells. The note with it: Homo sapiens, NCI-N87, 48 h.
Description: Antiproliferative activity against human NCI-N87 cells assessed as inhibition of cell proliferation incubated for 48 hrs by MTT assay
Data set [4] has as its system MGC-803. Briefly: cells. The following applies: Homo sapiens, MGC-803, 48 h.
Description: Antiproliferative activity against human MGC-803 cells assessed as inhibition of cell proliferation incubated for 48 hrs by MTT assay
For data set [5], the system named is MDA-MB-231. Briefly: cells. The note with it: Homo sapiens, MDA-MB-231, 48 h.
Description: Antiproliferative activity against human MDA-MB-231 cells assessed as inhibition of cell proliferation incubated for 48 hrs by MTT assay
Data set [6] concerns ECa-109 cell line. Briefly: cells. The note with it: Homo sapiens, ECa-109, 48 h.
Description: Antiproliferative activity against human EC109 cells assessed as inhibition of cell proliferation incubated for 48 hrs by MTT assay
Data set [7] deals with DU-145. Briefly: cells. The note with it: Homo sapiens, DU-145, 48 h.
Description: Antiproliferative activity against human DU-145 cells assessed as inhibition of cell proliferation incubated for 48 hrs by MTT assay
Data set [8] has as its system Huh-7. Briefly: cells. The note with it: Homo sapiens, Huh-7, 48 h.
Description: Antiproliferative activity against human Huh-7 cells assessed as inhibition of cell proliferation incubated for 48 hrs by MTT assay
The subject of data set [9] is NCI-H1975. Put plainly: cells. The note with it: Homo sapiens, NCI-H1975, 48 h.
Description: Antiproliferative activity against human NCI-H1975 cells assessed as inhibition of cell proliferation incubated for 48 hrs by MTT assay
The subject of data set [10] is KYSE-450. Put plainly: cells. The following applies: Homo sapiens, KYSE-450, 48 h.
Description: Antiproliferative activity against human KYSE-450 cells assessed as inhibition of cell proliferation incubated for 48 hrs by MTT assay
For data set [11], the system named is HCT-116. Briefly: cells. The note with it: Homo sapiens, HCT-116, 48 h.
Description: Antiproliferative activity against human HCT-116 cells assessed as inhibition of cell proliferation incubated for 48 hrs by MTT assay
A short description of data set [12]: in vitro. The following applies: rat, liver microsomes.
Description: Metabolic stability in rat liver microsomes assessed as parent compound remaining measured after 5 min
Data set [13] in a line: Metabolic stability in rat liver assessed as intrinsic clearance.
The nature of data set [14]: in vitro. The following applies: rat, liver microsomes. This is another data set of the same source. For orientation: Microsomes from liver hold many membrane-bound enzymes, among them those of drug oxidation.
Description: Metabolic stability in rat liver microsomes assessed as parent compound remaining measured after 60 min
The nature of data set [15]: in vitro. The note with it: rat, liver microsomes. This is another data set of the same source.
Description: Metabolic stability in rat liver microsomes assessed as parent compound remaining measured after 30 min
Data set [16] is described as follows: in vitro. The following applies: rat, liver microsomes. This is another data set of the same source.
Description: Metabolic stability in rat liver microsomes assessed as parent compound remaining measured after 15 min

For the compound `CNC(=O)c1ccccc1Nc1nc(Nc2ccc(N3CCOCC3)cc2OC)ncc1Cl`, the IC50 in data set [1] came to 1.82 µM; in [2], 1.03 µM; in data set [3] it was 2.12 µM; in [4], 1.28 µM; in data set [5], 2.12 µM; in data set [6], 3.27 µM. For the same compound, the half-inhibitory concentration (IC50) in [7] turned out to be 0.72 µM; in data set [8], 0.51 µM; in [9], 1.82 µM; in [10], 3.44 µM; in [11], 1.52 µM.

In turn, `O=C(O)Cc1ccccc1Nc1c(Cl)cccc1Cl` [DICLOFENAC] came in with a fraction remaining at 5 min in data set [12] of 77.9%. In data set [13], the CLint scaled stood at 127 mL/min/kg. This compound also registered a share remaining at 1 h in data set [14] of 11.5%. For the same compound, the amount remaining at 0.5 h in [15] was 33.8%. The amount remaining at 0.25 h in data set [16] worked out at 55.7%.

Broadly, the IC50 is the point on the concentration scale where inhibition reaches its midpoint. Broadly, the amount remaining is what is left of the initial amount, in per cent. By CLint scaled is commonly meant a measure of how fast metabolising enzymes remove a compound, apart from limits set by blood flow.
